Here are results for one compound from article PMC4429609 (Journal of medicinal chemistry, 2012).

Test in all cases: biochemical
The target of one assay is AKT1 (Homo sapiens, UniProt P31749). The conditions noted are these: read-out: % Inhibition at 1 μM, AKT1.
The next assay has as its target CDK1/cyclin B (Homo sapiens, UniProt P06493). The conditions noted are these: read-out: % Inhibition at 1 μM, CDK1/cyclin B.
The next assay has as its target CDK2/cyclin A (Homo sapiens, UniProt P24941). The conditions noted are these: read-out: % Inhibition at 1 μM, CDK2/cyclin A.
For the next assay, the target named is CHK1 (Homo sapiens, UniProt O14757). The conditions noted are these: read-out: % Inhibition at 1 μM, CHK1.
CHK1, sequence (O14757 whole entry): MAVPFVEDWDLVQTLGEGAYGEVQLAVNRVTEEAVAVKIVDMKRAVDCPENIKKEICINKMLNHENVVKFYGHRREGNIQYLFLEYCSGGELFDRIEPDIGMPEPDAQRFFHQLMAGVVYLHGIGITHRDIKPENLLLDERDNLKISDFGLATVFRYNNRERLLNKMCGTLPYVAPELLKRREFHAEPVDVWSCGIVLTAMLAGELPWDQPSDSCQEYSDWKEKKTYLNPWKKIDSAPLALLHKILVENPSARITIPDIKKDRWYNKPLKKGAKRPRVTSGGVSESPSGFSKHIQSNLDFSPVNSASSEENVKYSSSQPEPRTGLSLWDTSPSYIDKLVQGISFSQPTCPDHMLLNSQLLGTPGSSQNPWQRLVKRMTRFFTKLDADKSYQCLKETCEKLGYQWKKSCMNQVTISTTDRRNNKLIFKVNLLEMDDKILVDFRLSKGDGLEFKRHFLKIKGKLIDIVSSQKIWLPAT
In the next assay the target is CHK2 (Homo sapiens, UniProt O96017). The conditions noted are these: read-out: % Inhibition at 1 μM, CHK2.
CHK2, sequence (O96017 whole entry, looked up): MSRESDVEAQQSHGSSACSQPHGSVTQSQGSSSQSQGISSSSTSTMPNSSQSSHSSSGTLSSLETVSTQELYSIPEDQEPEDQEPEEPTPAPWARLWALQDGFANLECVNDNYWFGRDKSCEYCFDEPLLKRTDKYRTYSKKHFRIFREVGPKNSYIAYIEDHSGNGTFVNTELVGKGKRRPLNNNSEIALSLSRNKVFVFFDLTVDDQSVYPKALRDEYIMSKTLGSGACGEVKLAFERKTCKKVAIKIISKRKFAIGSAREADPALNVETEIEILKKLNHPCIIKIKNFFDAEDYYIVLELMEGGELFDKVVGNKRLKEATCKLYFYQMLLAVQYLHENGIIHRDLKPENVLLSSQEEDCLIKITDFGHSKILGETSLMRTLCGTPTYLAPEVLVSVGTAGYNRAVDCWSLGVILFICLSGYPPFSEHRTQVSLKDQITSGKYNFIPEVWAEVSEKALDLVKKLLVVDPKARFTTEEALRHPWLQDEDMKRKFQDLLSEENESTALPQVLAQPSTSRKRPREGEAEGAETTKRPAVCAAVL
The target in another assay is NEK11 (Homo sapiens, UniProt Q8NG66). The conditions noted are these: read-out: % Inhibition at 1 μM, NEK11.
NEK11, sequence (Q8NG66 whole entry, looked up): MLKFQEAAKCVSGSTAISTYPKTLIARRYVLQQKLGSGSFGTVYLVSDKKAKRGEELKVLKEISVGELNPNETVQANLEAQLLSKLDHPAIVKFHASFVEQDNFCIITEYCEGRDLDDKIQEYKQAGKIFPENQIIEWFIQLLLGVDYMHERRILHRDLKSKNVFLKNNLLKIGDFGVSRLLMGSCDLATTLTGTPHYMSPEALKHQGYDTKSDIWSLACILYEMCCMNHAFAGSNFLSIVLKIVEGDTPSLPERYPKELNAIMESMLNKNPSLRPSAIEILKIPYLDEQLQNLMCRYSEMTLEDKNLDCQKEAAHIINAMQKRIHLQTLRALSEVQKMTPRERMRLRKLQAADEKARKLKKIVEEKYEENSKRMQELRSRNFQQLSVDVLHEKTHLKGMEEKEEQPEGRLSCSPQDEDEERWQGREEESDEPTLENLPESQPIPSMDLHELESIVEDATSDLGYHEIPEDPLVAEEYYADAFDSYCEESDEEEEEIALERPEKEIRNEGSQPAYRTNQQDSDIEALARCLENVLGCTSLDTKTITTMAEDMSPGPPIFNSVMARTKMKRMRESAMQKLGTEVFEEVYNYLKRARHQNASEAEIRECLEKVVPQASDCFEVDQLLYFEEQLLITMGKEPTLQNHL
In another assay the target is NEK6 (Homo sapiens, UniProt Q9HC98). The conditions noted are these: read-out: % Inhibition at 1 μM, NEK6.
NEK6, sequence (Q9HC98 whole entry, looked up): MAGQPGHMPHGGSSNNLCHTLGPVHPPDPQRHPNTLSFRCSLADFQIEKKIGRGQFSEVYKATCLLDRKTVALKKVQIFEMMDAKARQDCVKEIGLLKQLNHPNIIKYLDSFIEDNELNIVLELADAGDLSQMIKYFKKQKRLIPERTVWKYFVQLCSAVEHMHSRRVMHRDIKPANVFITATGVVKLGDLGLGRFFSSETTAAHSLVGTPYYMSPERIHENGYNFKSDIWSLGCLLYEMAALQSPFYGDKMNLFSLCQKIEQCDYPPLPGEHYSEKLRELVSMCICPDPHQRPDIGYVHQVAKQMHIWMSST
In the next assay the target is PLK1 (Homo sapiens, UniProt P53350). The conditions noted are these: read-out: % Inhibition at 1 μM, PLK1.
A further assay has as its target RET (Homo sapiens, UniProt P07949). The conditions noted are these: read-out: % Inhibition at 1 μM, RET.
Another assay deals with ROCK1 (Homo sapiens, UniProt Q13464). The conditions noted are these: read-out: % Inhibition at 1 μM, ROCK1.
ROCK1, sequence (Q13464 whole entry, looked up): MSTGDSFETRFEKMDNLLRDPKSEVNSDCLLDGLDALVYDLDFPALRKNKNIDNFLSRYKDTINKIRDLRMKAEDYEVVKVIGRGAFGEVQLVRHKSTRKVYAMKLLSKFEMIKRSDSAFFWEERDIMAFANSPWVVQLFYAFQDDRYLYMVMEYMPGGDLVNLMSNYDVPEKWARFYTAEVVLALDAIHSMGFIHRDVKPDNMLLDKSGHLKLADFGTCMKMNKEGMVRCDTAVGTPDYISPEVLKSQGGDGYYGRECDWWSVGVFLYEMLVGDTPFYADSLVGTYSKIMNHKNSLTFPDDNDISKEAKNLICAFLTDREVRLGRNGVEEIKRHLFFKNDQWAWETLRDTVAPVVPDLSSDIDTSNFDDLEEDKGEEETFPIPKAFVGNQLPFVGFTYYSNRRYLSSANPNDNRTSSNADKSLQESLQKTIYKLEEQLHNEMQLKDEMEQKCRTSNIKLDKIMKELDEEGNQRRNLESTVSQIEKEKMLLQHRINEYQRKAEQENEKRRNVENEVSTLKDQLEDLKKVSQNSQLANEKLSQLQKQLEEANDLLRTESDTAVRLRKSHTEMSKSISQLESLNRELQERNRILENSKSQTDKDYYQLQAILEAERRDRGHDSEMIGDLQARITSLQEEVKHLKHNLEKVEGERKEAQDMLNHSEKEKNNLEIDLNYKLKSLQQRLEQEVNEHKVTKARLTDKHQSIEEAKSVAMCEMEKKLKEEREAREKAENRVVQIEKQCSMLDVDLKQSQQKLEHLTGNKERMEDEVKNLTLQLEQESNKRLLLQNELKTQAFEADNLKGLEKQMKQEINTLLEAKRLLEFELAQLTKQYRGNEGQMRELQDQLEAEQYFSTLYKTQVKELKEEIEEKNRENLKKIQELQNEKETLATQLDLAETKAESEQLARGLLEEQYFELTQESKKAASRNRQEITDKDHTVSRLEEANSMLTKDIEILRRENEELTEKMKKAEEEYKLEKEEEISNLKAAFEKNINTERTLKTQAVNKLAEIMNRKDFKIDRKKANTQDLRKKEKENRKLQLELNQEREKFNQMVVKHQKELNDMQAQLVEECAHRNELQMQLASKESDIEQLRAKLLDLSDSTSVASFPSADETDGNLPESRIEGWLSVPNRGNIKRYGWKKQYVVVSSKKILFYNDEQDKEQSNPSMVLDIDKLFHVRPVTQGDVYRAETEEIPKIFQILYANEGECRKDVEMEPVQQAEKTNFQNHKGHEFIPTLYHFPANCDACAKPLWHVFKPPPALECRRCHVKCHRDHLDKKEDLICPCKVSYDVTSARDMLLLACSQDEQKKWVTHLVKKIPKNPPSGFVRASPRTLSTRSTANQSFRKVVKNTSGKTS
In another assay the target is TRKA (Homo sapiens, UniProt P04629). The conditions noted are these: read-out: % Inhibition at 1 μM, TRKA.
In the next assay the target is WEE1 (Homo sapiens, UniProt P30291). The conditions noted are these: read-out: % Inhibition at 1 μM, WEE1.
WEE1, sequence (P30291 whole entry, looked up): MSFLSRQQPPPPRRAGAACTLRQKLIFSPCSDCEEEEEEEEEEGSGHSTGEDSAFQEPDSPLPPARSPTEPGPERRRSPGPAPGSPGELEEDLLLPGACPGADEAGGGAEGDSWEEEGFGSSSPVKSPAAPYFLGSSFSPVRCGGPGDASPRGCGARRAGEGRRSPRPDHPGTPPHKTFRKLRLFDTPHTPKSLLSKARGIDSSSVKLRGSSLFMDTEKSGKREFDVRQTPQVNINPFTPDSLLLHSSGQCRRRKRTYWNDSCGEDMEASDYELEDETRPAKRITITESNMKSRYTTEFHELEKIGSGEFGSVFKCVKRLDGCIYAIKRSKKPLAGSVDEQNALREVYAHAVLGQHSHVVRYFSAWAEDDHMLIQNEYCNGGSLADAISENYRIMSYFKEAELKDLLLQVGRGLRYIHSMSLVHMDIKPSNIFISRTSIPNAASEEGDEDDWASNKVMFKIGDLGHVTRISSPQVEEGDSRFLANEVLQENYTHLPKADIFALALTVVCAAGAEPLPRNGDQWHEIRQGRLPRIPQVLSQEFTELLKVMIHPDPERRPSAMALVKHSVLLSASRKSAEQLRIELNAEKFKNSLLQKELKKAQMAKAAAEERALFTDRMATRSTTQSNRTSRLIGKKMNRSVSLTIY

RET, sequence (P07949 29-1114): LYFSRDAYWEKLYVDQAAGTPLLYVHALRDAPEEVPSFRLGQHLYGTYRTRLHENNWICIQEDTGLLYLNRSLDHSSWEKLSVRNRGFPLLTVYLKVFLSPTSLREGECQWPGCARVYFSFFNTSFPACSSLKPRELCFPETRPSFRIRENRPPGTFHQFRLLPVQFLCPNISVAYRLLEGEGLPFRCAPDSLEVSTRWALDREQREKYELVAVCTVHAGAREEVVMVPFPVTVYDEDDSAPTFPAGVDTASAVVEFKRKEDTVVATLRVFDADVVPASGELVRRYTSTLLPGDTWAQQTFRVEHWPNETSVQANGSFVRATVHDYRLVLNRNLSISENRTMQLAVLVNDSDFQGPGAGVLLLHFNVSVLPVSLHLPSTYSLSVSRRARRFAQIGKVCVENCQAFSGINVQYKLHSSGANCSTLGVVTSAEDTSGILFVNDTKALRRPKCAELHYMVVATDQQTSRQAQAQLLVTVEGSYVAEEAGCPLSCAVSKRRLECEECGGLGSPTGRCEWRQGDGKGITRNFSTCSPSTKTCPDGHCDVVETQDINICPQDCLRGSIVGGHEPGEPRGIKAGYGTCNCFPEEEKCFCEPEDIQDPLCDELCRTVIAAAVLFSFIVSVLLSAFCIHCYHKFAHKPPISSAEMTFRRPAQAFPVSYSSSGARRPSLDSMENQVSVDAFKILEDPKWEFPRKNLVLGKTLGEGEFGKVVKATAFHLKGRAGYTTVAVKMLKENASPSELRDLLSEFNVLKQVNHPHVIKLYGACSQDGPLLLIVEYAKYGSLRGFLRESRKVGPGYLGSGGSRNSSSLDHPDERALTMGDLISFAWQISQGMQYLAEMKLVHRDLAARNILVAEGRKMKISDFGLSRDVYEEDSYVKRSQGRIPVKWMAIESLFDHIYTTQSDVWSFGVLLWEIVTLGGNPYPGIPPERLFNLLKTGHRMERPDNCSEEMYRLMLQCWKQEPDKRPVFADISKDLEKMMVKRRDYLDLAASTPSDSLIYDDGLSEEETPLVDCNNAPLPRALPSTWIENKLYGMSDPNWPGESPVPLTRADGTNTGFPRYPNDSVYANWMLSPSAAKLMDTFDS

`Cc1cc(Nc2cc(N3CCN(C)CC3)nc(Sc3ccc(NC(=O)C4CC4)cc3)n2)n[nH]1` [VX-680]: the inhibition at 1 µM worked out at 3% on AKT1; 5% on CDK1/cyclin B; 7% on CDK2/cyclin A; 16% at CHK1; 4% on CHK2; 11% on NEK11. Also, the inhibition at 1 µM on NEK6 is -5%; at PLK1 it was 0%; on RET, 96%; at ROCK1, -2%; at TRKA, 95%; at WEE1, 2%.
